This note sets out measurements from patent publication US20230086702A1, “SUBSTITUTED 2-AMINO-PYRAZOLYL-[1,2,4]TRIAZOLO[1,5A]PYRIDINE DERIVATIVES AND USE THEREOF” (The Johns Hopkins University, priority 2019, published 2023).

In general, pIC50 refers to −log10 of the IC50, conventionally taken in molar units. Higher therefore signals a low IC50.

For one assay, the target named is T1, DLK (Homo sapiens, UniProt Q12852).
T1 construct: 10 nM DLK, catalytic domain, Carna Biosiences; purchased Carna Biosciences ('Carna Biosiences' [sic])
T1 sequence (Q12852 125-366 limits assumed): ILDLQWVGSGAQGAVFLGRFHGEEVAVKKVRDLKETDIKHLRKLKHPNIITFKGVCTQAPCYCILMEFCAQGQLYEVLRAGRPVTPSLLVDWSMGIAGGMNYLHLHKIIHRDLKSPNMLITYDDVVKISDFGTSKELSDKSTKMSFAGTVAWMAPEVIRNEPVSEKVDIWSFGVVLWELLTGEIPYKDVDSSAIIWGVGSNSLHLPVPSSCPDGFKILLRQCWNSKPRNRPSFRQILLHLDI
Briefly: DLK biochemical assay (TR-FRET, MKK7 phosphorylation). The protocol: (§1) DLK assay is a biochemical assay format designed to screen for inhibitors of DLK. Enzymatic activity of DLK is measured by monitoring phosphorylation of the physiological substrate MKK7 (MAP2K7, Dual specificity mitogen-activated protein kinase kinase 7). Phosphorylation is detected by a TR-FRET system whereby His-tagged MKK7 is labeled by a XL665-labeled anti-His antibody (FRET acceptor, emission 665 nm). DLK phosphorylates MKK7 at T275/S277, which is detected by an Eu-labeled anti-phospho-MKK7 (T275/S277) antibody (FRET donor, excitation 340 nm). Phosphorylation of MKK7 results in an increased TR-FRET signal (Ratio XL665-channel/Eu-channel) and inhibition of enzymatic activity of DLK decreases the TR-FRET signal.
Assay Protocol for 1536 MTP format: test compounds are predispensed (60 nl) in test plates; +3 μl DLK solution (10 nM DLK, catalytic domain, Carna Biosiences, 0.6 mM DTT in assay buffer); +2 μl substrate solution (15 nM MKK7, LDB; 60 μM ATP; 0.4 mM DTT in assay buffer); 90 min incubation at RT; +2 μl detection mix (5 nM XL665-labeled anti-His antibody, Cisbio; 0.1 nM Eu-labeled anti-phospho-MKK7 (T275/S277), Cisbio/Millipore in detection buffer); 16 h incubation at 37° C.; endpoint measurement BMG (HTRF).
Assay Protocol for 384 low volume MTP format: 1 μl of test compounds is pipetted into test plate; +5 μl DLK solution (10 nM DLK, catalytic domain, Carna Biosiences in assay buffer); +5 μl substrate solution (15 nM MKK7, LDB; 60 μM ATP, in assay buffer); 90 min incubation at RT; +9 μl detection mix (20 nM XL665-labeled anti-His antibody, Cisbio; 0.4 nM Eu-labeled anti-phospho-MKK7 (T275/S277), Cisbio/Millipore in detection buffer); 16 h incubation at 4° C.; endpoint measurement BMG (HTRF).
(§2) All indicated concentrations final concentrations.
(§3) Assay buffer (384 format): 50 mM Hepes pH 7.5, 10 mM MgCl2, 1 mM EGTA, 1 mM DTT, 0.01% Triton X-100, 0.01% BSA, 1:500 Smart Block.
(§4) Detection buffer: 25 mM Tris/HCl pH 7.5, 100 mM EDTA, 100 mM NaCl, 200 mM KF, 0.01% Tween 20, 1:500 Smart Block.
(In general: In TR-FRET formats the signal depends on donor and acceptor labels being close together.)

The target of a further assay is T2, LZK (Homo sapiens, UniProt O43283).
T2 construct: 10 nM LZK, catalytic domain, Carna Biosiences in assay buffer; purchased Carna Biosciences ('Carna Biosiences' [sic])
T2 sequence (O43283 168-409 limits assumed): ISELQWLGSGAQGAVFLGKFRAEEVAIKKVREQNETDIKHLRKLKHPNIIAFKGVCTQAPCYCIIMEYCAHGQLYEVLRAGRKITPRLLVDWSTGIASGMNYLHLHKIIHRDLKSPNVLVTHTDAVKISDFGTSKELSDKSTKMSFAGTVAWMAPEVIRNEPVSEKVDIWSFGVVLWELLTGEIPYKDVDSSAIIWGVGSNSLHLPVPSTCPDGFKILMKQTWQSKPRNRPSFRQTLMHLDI
Description: LZK biochemical assay (TR-FRET, MKK7 phosphorylation). As to the method:
as §1, with “LZK” for “DLK”, “LZK.” for “DLK.”, “T275/S277” for “T275/S277,”
Assay Protocol for 384 low volume MTP format: 1 μl of test compound is pipetted into test plate; +5 μl LZK solution (10 nM LZK, catalytic domain, Carna Biosiences in assay buffer); +5 μl substrate solution (15 nM MKK7, LDB; 15 μM ATP, in assay buffer); 90 min incubation at RT; +5 μl detection mix (20 nM XL665-labeled anti-His antibody, Cisbio; 0.4 nM Eu-labeled anti-phospho-MKK7 (T275/S277), Cisbio/Millipore in detection buffer); 16 h incubation at 32° C.; endpoint measurement BMG (HTRF).
as §2, §3, §4

pIC50: −log10 of the molar value.

As for `CC[C@@H](c1ccccc1)n1cc(-c2cc(-c3cnn(C(C)C(F)(F)F)c3)c3nc(N)nn3c2)cn1` (mixture of isomers) [II-94, 6-{1-[(15)-1-Phenylpropyl]-1H-pyrazol-4-yl}-8-[1-(1,1,1-trifluoropropan-2-yl)-1H-pyrazol-4-yl][1,2,4]triazolo[1,5-a]pyridin-2-amine], the pIC50 at DLK is 7.66; against LZK it was 6.70.

As to `CCC(c1ccc(C(F)(F)F)nc1)n1cc(-c2cc(-c3cc(CO)ccc3Cl)c3nc(N)nn3c2)cn1` (racemic) [II-1, {3-[2-Amino-6-(1-{1-[6-(trifluoromethyl)pyridin-3-yl]propyl}-1H-pyrazol-4-yl)[1,2,4]triazolo[1,5-a]pyridin-8-yl]-4-chlorophenyl}methanol], the pIC50 is 8.20 on DLK and 8.64 at LZK.

On to `Nc1nc2c(-c3cc(CO)ccc3Cl)cc(-c3cnn(C(c4ccc(C(F)(F)F)nc4)C4CCOCC4)c3)cn2n1` (racemic) [II-4, {3-[2-Amino-6-(1-{tetrahydro-2H-pyran-4-yl[6-(trifluoromethyl)pyridin-3-yl]methyl}-1H-pyrazol-4-yl)[1,2,4]triazolo[1,5-a]pyridin-8-yl]-4-chlorophenyl}methanol], for which the results for the pIC50 at DLK and on LZK were 8.15 and 8.23, respectively.

Consider `CCC(c1ccc(C(F)(F)F)nc1)n1cc(-c2cc(-c3cccc(C(C)(C)O)c3)c3nc(N)nn3c2)cn1` (racemic) [II-7, 2-{3-[2-Amino-6-(1-{1-[6-(trifluoromethyl)pyridin-3-yl]propyl}-1H-pyrazol-4-yl)[1,2,4]triazolo[1,5-a]pyridin-8-yl]phenyl}propan-2-ol], for which the values for the pIC50 against DLK and at LZK were 9.10 and 8.48, respectively.

With `CC(C)(O)c1cccc(-c2cc(-c3cnn(C(c4ccc(C(F)(F)F)nc4)C4CCOCC4)c3)cn3nc(N)nc23)c1` (racemic) [II-10, 2-{3-[2-Amino-6-(1-{tetrahydro-2H-pyran-4-yl[6-(trifluoromethyl)pyridin-3-yl]methyl}-1H-pyrazol-4-yl)[1,2,4]triazolo[1,5-a]pyridin-8-yl]phenyl}propan-2-ol], the pIC50 is 9.15 on DLK and 9.05 on LZK.

Turning to `CS(=O)(=O)c1cccc(-c2cc(-c3cnn(C(c4ccc(C(F)(F)F)nc4)C4CCOCC4)c3)cn3nc(N)nc23)c1` (racemic) [II-13, 8-[3-(Methylsulfonyl)phenyl]-6-(1-{tetrahydro-2H-pyran-4-yl[6-(trifluoromethyl)pyridin-3-yl]methyl}-1H-pyrazol-4-yl)[1,2,4]triazolo[1,5-a]pyridin-2-amine], the pIC50 against DLK is 9.15; against LZK, 8.74.

With `CCS(=O)(=O)c1cccc(-c2cc(-c3cnn(C(c4ccc(C(F)(F)F)nc4)C4CCOCC4)c3)cn3nc(N)nc23)c1` (racemic) [II-16, 8-[3-(Ethylsulfonyl)phenyl]-6-(1-{tetrahydro-2H-pyran-4-yl[6-(trifluoromethyl)pyridin-3-yl]methyl}-1H-pyrazol-4-yl)[1,2,4]triazolo[1,5-a]pyridin-2-amine], the pIC50 was 8.96 against DLK and 8.46 at LZK.

Take `Nc1nc2c(-c3cccc(S(=O)(=O)C(F)(F)F)c3)cc(-c3cnn(C(c4ccc(C(F)(F)F)nc4)C4CCOCC4)c3)cn2n1` (racemic) [II-19, 6-(1-{Tetrahydro-2H-pyran-4-yl[6-(trifluoromethyl)pyridin-3-yl]methyl}-1H-pyrazol-4-yl)-8-{3-[(trifluoromethyl)sulfonyl]phenyl}[1,2,4]triazolo[1,5-a]pyridin-2-amine]: the pIC50 against DLK is 7.77; on LZK, 7.35.

`CN(C)c1cccc(-c2cc(-c3cnn(C(c4ccc(C(F)(F)F)nc4)C4CCOCC4)c3)cn3nc(N)nc23)c1` (racemic) [II-22, 8-[3-(Dimethylamino)phenyl]-6-(1-{tetrahydro-2H-pyran-4-yl[6-(trifluoromethyl)pyridin-3-yl]methyl}-1H-pyrazol-4-yl)[1,2,4]triazolo[1,5-a]pyridin-2-amine]: the pIC50 against DLK was 8.66; at LZK, 8.18.

On to `CCC(c1ccc(C(F)(F)F)nc1)n1cc(-c2cc(-c3ccnc(OC(F)F)c3)c3nc(N)nn3c2)cn1` (racemic) [II-25, 8-[2-(Difluoromethoxy)pyridin-4-yl]-6-(1-{1-[6-(trifluoromethyl)pyridin-3-yl]propyl}-1H-pyrazol-4-yl)[1,2,4]triazolo[1,5-a]pyridin-2-amine], for which the pIC50 at DLK is 6.89; at LZK, 7.09.

For `CC(C)C(c1ccc(C(F)(F)F)nc1)n1cc(-c2cc(-c3ccnc(C(F)(F)F)c3)n3nc(N)nc3c2)cn1` (racemic) [II-28, 7-(1-{2-Methyl-1-[6-(trifluoromethyl)pyridin-3-yl]propyl}-1H-pyrazol-4-yl)-5-[2-(trifluoromethyl)pyridin-4-yl][1,2,4]triazolo[1,5-a]pyridin-2-amine], the negative-log IC50 (pIC50) at DLK was 7.55; against LZK, 7.57.

As for `CCC(c1ccc(C(F)(F)F)nc1)n1cc(-c2cc(-c3ccnc(C4(F)CC4)c3)n3nc(N)nc3c2)cn1` (racemic) [II-31, 5-[2-(1-Fluorocyclopropyl)pyridin-4-yl]-7-(1-{1-[6-(trifluoromethyl)pyridin-3-yl]propyl}-1H-pyrazol-4-yl)[1,2,4]triazolo[1,5-a]pyridin-2-amine], the pIC50 was 7.59 against DLK and 8.21 on LZK.

In the case of `Nc1nc2cc(-c3cnn(C(c4ccc(C(F)(F)F)nc4)C4CCOCC4)c3)cc(-c3ccnc(C(F)(F)F)c3)n2n1` (racemic) [II-34, 7-(1-{Tetrahydro-2H-pyran-4-yl[6-(trifluoromethyl)pyridin-3-yl]methyl}-1H-pyrazol-4-yl)-5-[2-(trifluoromethyl)pyridin-4-yl][1,2,4]triazolo[1,5-a]pyridin-2-amine], the negative-log IC50 (pIC50) at DLK was 7.82; against LZK, 8.15.

As to `CCC(c1ccc(C(F)(F)F)nc1)n1cc(-c2cc(-c3ccc(C(F)(F)F)nc3)c3nc(N)nn3c2)cn1` (racemic) [II-37, 8-[6-(Trifluoromethyl)pyridin-3-yl]-6-(1-{1-[6-(trifluoromethyl)pyridin-3-yl]propyl}-1H-pyrazol-4-yl)[1,2,4]triazolo[1,5-a]pyridin-2-amine], the results for the negative-log IC50 (pIC50) against DLK and against LZK were 7.34 and 7.13, respectively.

Consider `CC(C)C(c1ccc(C(F)(F)F)nc1)n1cc(-c2cc(-c3ccc(C(F)(F)F)nc3)c3nc(N)nn3c2)cn1` (racemic) [II-40, 6-(1-{2-Methyl-1-[6-(trifluoromethyl)pyridin-3-yl]propyl}-1H-pyrazol-4-yl)-8-[6-(trifluoromethyl)pyridin-3-yl][1,2,4]triazolo[1,5-a]pyridin-2-amine], for which the pIC50 at DLK is 7.36; against LZK, 6.92.
